Reference: the CATMoS acute toxicity set (Mansouri et al. 2021)

Experiment: GHS categories as the set defines them, by LD50: 1 up to 5, 2 up to 50, 3 up to 300, 4 up to 2000, 5 above 2000 mg/kg
Conditions: rat; in vivo; po

SMILES: COc1ccc(C2COc3ccccc3O2)cc1O (stereo unspecified)
- GHS category: 5

SMILES: CCCCCCCOCC(C)CC=O (stereo unspecified)
- GHS category: 5

SMILES: NC(=O)NC(c1ccccc1)c1ccccc1
- GHS category: 5

SMILES: CCC1COC(Cn2cncn2)(c2cc3ccccc3o2)O1 (stereo unspecified)
- GHS category: 4

SMILES: COC12C[C@@H](CO)CN(C)[C@@H]1Cc1cn(C(C)(C)C)c3cccc2c13 (stereo partly specified)
- GHS category: 4

SMILES: CNC(=O)C(=NNc1ccc(OC)cc1[N+](=O)[O-])C(C)=O
- GHS category: 5

SMILES: CNC(=O)c1sc(-c2ccccc2OC)nc1C
- GHS category: 5

SMILES: CC1(C(=O)O)CCCCC1
- GHS category: 4

SMILES: FC(F)(F)c1cccc(N2CCc3ccccc3C2c2ccccc2)c1 (stereo unspecified)
- GHS category: 4

SMILES: Cc1[nH]c2ccc(O)cc2c1CC(=O)OCC(=O)O
- GHS category: 5

SMILES: O=c1[nH]c(=O)n([C@H]2O[C@H](CO)[C@@H](O)[C@@H]2O)cc1/C=C\Br
- GHS category: 5

SMILES: Clc1cc(Cl)c2oc(C3(Cn4ccnc4)OCCCO3)cc2c1
- GHS category: 4

SMILES: C=CC(=C)CCC=C(C)C
- GHS category: 5

SMILES: CC(C)COP(O)(=S)OCC(C)C
- GHS category: 5

SMILES: Nc1ccc(N)c(S(=O)(=O)O)c1
- GHS category: 5

SMILES: O=NNC1=NCCN1Cc1ccc(Cl)nc1
- GHS category: 5

SMILES: CCCCCCCCCCCC(=O)OOC(=O)CCCCCCCCCCC
- GHS category: 5

SMILES: Cc1c(C#N)sc(N)c1C#N
- GHS category: 4

SMILES: O=C(Cc1ccccc1)Cc1ccccc1
- GHS category: 5

SMILES: COC(=O)CBr
- GHS category: 3

SMILES: Fc1ccccc1C1=NCC(=S)N(CC(F)(F)F)c2ccc(Cl)cc21
- GHS category: 5

SMILES: CCCc1c(Cc2ccc(-c3ccccc3-c3nn[nH]n3)cc2)c(OCCOC)nc2ncnn12
- GHS category: 4

SMILES: CN1C(=O)CCc2ccc(OCCCN3CCC(Cc4ccccc4)CC3)cc21
- GHS category: 4

SMILES: Cn1c(=O)oc2ccc(Cl)cc21
- GHS category: 5

SMILES: CCCCCC(=O)OCCCC
- GHS category: 5

SMILES: CNC(=O)c1sc(-c2ccc(OC)cc2)nc1C
- GHS category: 5

SMILES: N#CCN(CC#N)CCN(CC#N)CC#N
- GHS category: 5

SMILES: COC(=O)C(CCn1cnc2c(Cl)nc(N)nc21)C(=O)OC
- GHS category: 5

SMILES: CC1CCC(C(C)C)C(OC(=O)C2OC(O)CS2)C1 (stereo unspecified)
- GHS category: 5

SMILES: COc1ccc2c(c1)CCN(c1ccccc1)C2c1ccc(F)cc1 (stereo unspecified)
- GHS category: 4

SMILES: C=C(C)C(C)(C)Cc1ccc(Nc2ccc(CC(C)(C)C(=C)C)cc2)cc1
- GHS category: 5

SMILES: Cc1ccc(NC(=O)N(C)C)cc1NC(=O)N(C)C
- GHS category: 5

SMILES: COc1nc(C)nc(=NC(O)=NS(=O)(=O)c2ccccc2C(=O)O)[nH]1
- GHS category: 5

SMILES: CCOc1ccc(Cc2cc([C@@H]3O[C@H](COC(C)=O)[C@@H](OC(C)=O)[C@H](OC(C)=O)[C@H]3OC(C)=O)ccc2Cl)cc1
- GHS category: 5

SMILES: CCCCCCCCCCCCCCCCCCOCCC[N+](C)(C)C
- GHS category: 4

SMILES: COc1cc2c(cc1OC)C(c1cccc(Cl)c1)=NN=C(C)C2
- GHS category: 5

SMILES: c1ccc(C2CCCCC2)cc1
- GHS category: 5

SMILES: CCCCCCCC(=O)Nc1ccc(Cc2ccccn2)c([N+](=O)[O-])c1
- GHS category: 3

SMILES: CO[C@@H](c1cc(C)c(O)c(C)c1)[C@@H](C)CO
- GHS category: 5

SMILES: CC1CCC2(OC1)OC1CC3C4CC=C5CC(O)CCC5(C)C4CCC3(C)C1C2C (stereo unspecified)
- GHS category: 5

SMILES: O=C1OC(CBr)CC12CC(CBr)OC2=O (stereo unspecified)
- GHS category: 5

SMILES: O=C1C=CC=CC1=CNc1ccccc1C(=O)O
- GHS category: 4

SMILES: Cc1c(OCC(F)(F)F)ccnc1CS(=O)c1nc2ccccc2[nH]1 (stereo unspecified)
- GHS category: 5

SMILES: O=C(CCc1ccc2c(c1)OCO2)C1C(=O)CC(c2ccccc2)CC1=O (stereo unspecified)
- GHS category: 5

SMILES: CCCC(C)O (stereo unspecified)
- GHS category: 5

SMILES: COc1ccc(C2(O)c3ccccc3C3=NCCN32)cc1 (stereo unspecified)
- GHS category: 4

SMILES: CCCCOc1ccc(-c2ccc(C#N)cc2)cc1
- GHS category: 5

SMILES: CC/C=C\CCC1(C)CCC(=O)O1 (stereo unspecified)
- GHS category: 5

SMILES: Cc1ccc(C(=O)c2cc(O)c(O)c([N+](=O)[O-])c2)cc1
- GHS category: 5

SMILES: CC1CC(OC(=O)C(C)(C)Oc2cccc(C(F)(F)F)c2)CC(C)(C)C1 (stereo unspecified)
- GHS category: 5

SMILES: CC(=O)C1(c2ccccc2)CCN(CCCOc2ccc3c(c2)NC(=O)CC3)CC1
- GHS category: 4

SMILES: CC1CC(OC(=O)c2ccccc2O)CC(C)(C)C1 (stereo unspecified)
- GHS category: 5

SMILES: O=[N+]([O-])c1ccc(CCc2ccc([N+](=O)[O-])cc2)cc1
- GHS category: 5

SMILES: Brc1c(Br)c(Br)c(-c2c(Br)c(Br)c(Br)c(Br)c2Br)c(Br)c1Br
- GHS category: 5

SMILES: COC(=O)c1ccc2c(C3CCCC3)cn(C)c2c1
- GHS category: 5

SMILES: Cc1cc(C(C)(C)C)c(OP2COC3(COP(Oc4c(C(C)(C)C)cc(C)cc4C(C)(C)C)OC3)OC2)c(C(C)(C)C)c1 (stereo unspecified)
- GHS category: 5

SMILES: C=C(C)C(=O)OCCOC(=O)NCCC(C)CC(C)(C)CNC(=O)OCCOC(=O)C(=C)C (stereo unspecified)
- GHS category: 5

SMILES: CCOC(=O)CP(=O)(OCC)OCC
- GHS category: 5

SMILES: CCCS(=O)(=O)Nc1ccc(F)c(C(=O)O)c1F
- GHS category: 5

SMILES: C=C(C)C1CCC(C)C(O)C1 (stereo unspecified)
- GHS category: 5

SMILES: Cc1ccc2c(-c3ccc(F)cc3)nc(=O)n(C(C)C)c2c1
- GHS category: 5

SMILES: FC(F)(F)C(F)(F)C(Cl)Cl
- GHS category: 5

SMILES: CCCCCC(=O)OC1(C(C)=O)CCC2C3CCC4=CC(=O)CCC4C3CCC21C (stereo unspecified)
- GHS category: 5

SMILES: CCCCCCCC(=O)OCCC(C)C
- GHS category: 5

SMILES: CC1CCC(C(C)(C)O)CC1 (stereo unspecified)
- GHS category: 5

SMILES: CCCCC(CC)C(=O)OOC(C)(C)C (stereo unspecified)
- GHS category: 5

SMILES: CC(=O)[C@@]1(O)CC[C@H]2[C@@H]3CCC4=CC(=O)CC[C@]4(C)C3=CC[C@@]21C
- GHS category: 5

SMILES: OCCN1CNC(=S)NC1
- GHS category: 5

SMILES: O=C(O)c1cc(N=Nc2ccc(N=Nc3ccc(S(=O)(=O)O)cc3)cc2)ccc1O
- GHS category: 5

SMILES: Nc1cc(S(=O)(=O)O)c2cc(S(=O)(=O)O)cc(S(=O)(=O)O)c2c1
- GHS category: 5

SMILES: c1ccc(-c2cc3ccccc3[nH]2)cc1
- GHS category: 5

SMILES: Nc1ccc(OS(=O)(=O)O)c(C(=O)O)c1
- GHS category: 5

SMILES: O=C1CC(=O)NC(=O)N1
- GHS category: 5

SMILES: OCc1cncs1
- GHS category: 5

SMILES: CCCc1c(OCc2cccn3c(=O)c(-c4nn[nH]n4)cnc23)ccc(C(C)=O)c1O
- GHS category: 5

SMILES: OC(c1ccc(F)cc1F)c1cccnc1Cl (stereo unspecified)
- GHS category: 5

SMILES: CNC(=O)Oc1ccc(C)c2sccc12
- GHS category: 3

SMILES: N=c1ccn2c(n1)O[C@H]1[C@H](O)[C@@H](CO)O[C@H]12
- GHS category: 5

SMILES: CCCCc1oc2ccc([N+](=O)[O-])cc2c1C(=O)c1ccc(O)cc1
- GHS category: 5

SMILES: Oc1cc(O)ncn1
- GHS category: 5

SMILES: Cc1ccc(OP(=O)(Oc2ccc(C)cc2C)Oc2ccc(C)cc2C)c(C)c1
- GHS category: 5

SMILES: CN1CC(c2ccnn2-c2ccccc2)CC2c3cccc4[nH]cc(c34)CC21 (stereo unspecified)
- GHS category: 4

SMILES: Cc1cc(C2(c3ccc(O)cc3)NC(=O)NC2=O)ccc1O (stereo unspecified)
- GHS category: 5

SMILES: C=C(C)CC1CCCCCCCCCCC1=O (stereo unspecified)
- GHS category: 5

SMILES: CC(c1ccccc1)c1ccc(Nc2ccc(C(C)c3ccccc3)cc2)cc1 (stereo unspecified)
- GHS category: 5

SMILES: C[Si]1(C)O[Si](C)(C)O[Si](C)(C)O[Si](C)(C)O[Si](C)(C)O[Si](C)(C)O1
- GHS category: 5

SMILES: COc1ccccc1NC(=O)C(N=Nc1ccc(Cl)cc1[N+](=O)[O-])C(C)=O (stereo unspecified)
- GHS category: 5

SMILES: CCCCCC(=O)OC
- GHS category: 5

SMILES: COP(=O)(NC(=O)C(Cl)Cl)SC (stereo unspecified)
- GHS category: 4

SMILES: COc1ccc(C2NC(=O)CCS2)cc1 (stereo unspecified)
- GHS category: 5

SMILES: COc1ccc(OC)c(C=O)c1
- GHS category: 5
